Measured values: paper PMC12378240, “(+)-/(−)-Ormohenins A and B, two pairs of ormosanine-type enantiomers and their derivatives with neuroprotective activity from Ormosia henryi Prain” (Natural Products and Bioprospecting, 2025)
Where two headings read alike, the source gives them in different places.

Tests used:
PC12 cells = assay: Neuroprotective activity against Aβ25-35 induced PC12 cell death by MTT assay; type: cell-based; details: for Cell viability: Aβ25-35-induced cell damage in PC12 cells, control = 1.000, model (Aβ25-35) = 0.633, test concentration not given; for EC50: Rattus norvegicus
Procedure: Meanwhile, all isolated compounds were evaluated for their neuroprotective potency against the Aβ25-35 induced PC12 cell death by MTT assay.
A cell viability assay was conducted to test the cytotoxic effects of the compounds on PC12 cells. Meanwhile, the neuroprotective activity of all compounds against the Aβ25-35 induced PC12 cell death by MTT assay. PC12 cells were divided into four groups: normal control, model, positive control (Resveratrol), and isolates intervention groups (1, 10, 20, 40, 60, 80, 100 μmol/L). Detailed experimental procedures and experimental data can be found in the Supporting Information.
Cell culture. […] The cells were maintained at 37°C in a humidified atmosphere containing 5% CO2. The culture medium was replaced every three days, and the cells were passaged when they reached 70% confluency.
Preparation of Aβ25-35. Aβ25-35 was dissolved in sterile double-distilled water to prepare a 2 mM stock solution. The solution was then incubated at 37°C for 7 days to induce aggregation.
MTT assay for cell viability. PC12 cells were divided into four groups: normal control, model, positive control (Resveratrol), and isolates intervention groups (1, 10, 20, 40, 60, 80, 100 μmol/L). The cells were seeded in 96-well plates at an appropriate density with 200 μL medium per well and were cultured for 24 hours. The positive control and intervention groups were pretreated with different concentrations of drug-containing medium for 2 hours, after which 2 μL of Aβ25-35 was added to each well of the model, positive control, and intervention groups for 24 hours. After the treatment, 20 μL of […] MTT solution was added to each well and incubated for 4 hours. The medium was then removed, and 150 μL of DMSO was added to each well. The plate was shaken until the formazan product was completely dissolved. The absorbance was measured at 570 nm using a spectrophotometer.

[1] = target: acetylcholinesterase (AChE) (Homo sapiens, UniProt P22303); assay: biochemical
Procedure: The first and the main class of drugs currently used for AD are the AChE inhibitors and are widely used for the symptomatic treatment of mild-moderate AD [2]. All alkaloids were screened toward AChE via improved Ellman’s method (Supporting Information).
The compounds were prepared in DMSO and diluted in buffer solution to different concentrations. In a 96-well plate, 140 μL of PBS (pH = 8) buffer, 20 μL of all the sample solutions were transferred in each well, and 20 μL of 0.2 U/mL AChE solution were added. The mixture was incubated at 37°C for 10 minutes. Subsequently, 10 μL of 3 mM 5,5'-dithiobis-(2-nitrobenzoic acid) (DTNB) and 10 μL of 15 mM acetylthiocholine (ATCl) were added, followed by reaction at 37 °C for 20 minutes. […] Each experimental group was set up with three replicate wells, and huperzine A was used as the positive control.

[2] = PC-12, against Aβ25-35-induced PC12 cell damage, MTT, resveratrol as positive control, read-out: EC50 (μM), neuroprotective effect
[3] = PC-12, read-out: EC50 (μM), neuroprotective effect

Sequence of acetylcholinesterase (AChE) (P22303 32-614, species assumed): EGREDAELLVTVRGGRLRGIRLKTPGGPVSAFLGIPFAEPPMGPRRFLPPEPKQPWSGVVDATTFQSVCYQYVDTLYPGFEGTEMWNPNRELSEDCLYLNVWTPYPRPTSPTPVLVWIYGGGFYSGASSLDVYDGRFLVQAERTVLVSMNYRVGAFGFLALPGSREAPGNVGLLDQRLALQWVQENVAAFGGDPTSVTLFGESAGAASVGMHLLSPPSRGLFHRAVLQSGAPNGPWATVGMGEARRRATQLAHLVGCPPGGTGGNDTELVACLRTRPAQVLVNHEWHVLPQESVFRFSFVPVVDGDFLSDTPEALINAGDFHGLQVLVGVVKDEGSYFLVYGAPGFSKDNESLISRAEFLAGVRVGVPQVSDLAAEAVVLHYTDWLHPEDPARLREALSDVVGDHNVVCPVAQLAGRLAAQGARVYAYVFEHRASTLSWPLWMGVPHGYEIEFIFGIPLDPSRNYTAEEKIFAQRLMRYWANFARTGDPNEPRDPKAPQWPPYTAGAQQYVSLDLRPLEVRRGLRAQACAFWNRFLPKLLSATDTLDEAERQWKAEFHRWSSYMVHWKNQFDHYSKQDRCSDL

| SMILES | Cell viability (PC12 cells; MTT) | other results |
| --- | --- | --- |
| C1CC[C@H]([C@@]23C[C@H](C[C@H]4CCCN[C@@H]42)[C@@H]2CCCCN2C3)NC1 (racemic) [Compound 5, (±)-18-epiormosanine] | 0.698 ± 0.032 |  |
| C1CC[C@@H]([C@@]23C[C@H](C[C@H]4CCCN[C@@H]42)[C@@H]2CCCCN2C3)NC1 (racemic) [Compound 6, (±)-ormosanine] | 0.704 ± 0.038 |  |
| Oc1ccc(/C=C/c2cc(O)cc(O)c2)cc1 [Resveratrol, reference compound] | 0.82 ± 0.039 | EC50 (PC12 cells; [2]): 5.99 µM |
| CC1N2CCCCC2C23CC(CC4CCCN1C42)C1CCCCN1C3 (single isomer, unassigned; (-)) [Compound 3, (−)-ormohenin C] | 0.899 ± 0.061 | IC50 ([1]; improved Ellman's method, huperzine A as positive control, read-out: AChE inhibitory activity IC50): 142 ± 19.6 µM; EC50 (PC12 cells; [2]): 15.5 µM |
| O=C1CCC[C@@H]2[C@@H]3C[C@H](CN12)[C@@H]1CCCCN1C3 [Compound 9, (+)-lupanine] | 0.974 ± 0.065 | EC50 (PC12 cells; [3]): 10.4 µM |
| O=C1CCC[C@@H]2[C@@H]3C[C@H](CN12)[C@H]1CCCCN1C3 [Compound 11, (+)-α-isolupanine] | 0.653 ± 0.027 |  |
| O=c1cccc2n1C[C@@H]1CNC[C@H]2C1 [Compound 12, (+)-cytisine] | 0.934 ± 0.031 | IC50 [1]: 6.85 ± 1.2 µM; EC50 (PC12 cells; [3]): 7.99 µM |
| O=C1CC=C[C@@H]2[C@@H]3C[C@H](CN12)[C@H]1CCCCN1C3 [Compound 7, (6R,7S,9S,11R)-4,5-dehydro-α-isolupanine] | 0.650 ± 0.009 |  |
| O=c1cccc2n1C[C@H]1C[C@@H]2CN2CC=CC[C@@H]12 [Compound 8, (7S,9S,11S)-15,16-dehydroanagyrine] | 0.662 ± 0.041 |  |
| CC1N2CCCCC2C23CC(CC4CCCN1C42)C1CCCCN1C3 (racemic) [Compound 1, (±)-Ormohenin A] | 0.641 ± 0.009 |  |
| CC1N2CCCCC2C23CC(CC4CCCN1C42)C1CCCCN1C3 (racemic) [Compound 2, (±)-Ormohenin B] | 0.693 ± 0.024 |  |
| C[C@@H]1N2CCCC[C@H]2[C@@]23C[C@H](C=C4CCCN1[C@@H]42)[C@@H]1CCCCN1C3 [Compound 4, (−)-ormohenin D] | 0.629 ± 0.013 |  |
| O=c1cccc2n1C[C@H]1C[C@@H]2CN2CCCC[C@@H]12 [Compound 10, (+)-anagyrine] | 0.645 ± 0.011 |  |
